Data: US7608620B2, “LPAAT-β inhibitors and uses thereof” (Cell Therapeutics, Inc., priority 2000, dated 2009)

Tests used:
[1] = system: NIH/3T3 cells overexpressing the oncogene Ki-ras; experiment: Tumor growth of NIH/3T3 cells overexpressing Ki-ras injected subcutaneously into nude mice; type: in vivo; details: 10 mg/Kg to 100 mg/Kg intra-peritoneally on day 1, 2, 3 and 4; tumors measured on day 8; FIG. 6B
Procedure: To determine whether administration of LPAAT-β inhibitor would have any effect on tumor growth in mice, 5×10^5 NIH/3T3 cells overexpressing the oncogene Ki-ras were injected subcutaneously into nude mice. An LPAAT-β inhibitor 6-chloro-N,N′-diphenyl-[1,3,5]triazine-2,4-diamine, at concentrations that range from 10 mg/Kg to 100 mg/Kg of mouse body weight was injected intra-peritoneally on day 1, 2, 3 and 4 after injection of tumor cells. The size of tumors was then measured on day 8.

[2] = molecular target: T1, LPAAT-α (Homo sapiens, UniProt Q99943); experiment: Secondary assay, effect on LPAAT-α activity; type: biochemical; details: FIG. 9
T1 sequence (Q99943 27-283): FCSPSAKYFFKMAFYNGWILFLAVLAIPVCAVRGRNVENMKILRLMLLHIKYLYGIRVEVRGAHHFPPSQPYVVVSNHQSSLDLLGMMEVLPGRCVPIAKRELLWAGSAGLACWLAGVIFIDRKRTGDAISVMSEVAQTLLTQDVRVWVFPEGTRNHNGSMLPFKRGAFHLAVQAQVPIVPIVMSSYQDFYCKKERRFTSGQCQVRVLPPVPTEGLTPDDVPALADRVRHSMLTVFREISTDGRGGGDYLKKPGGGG

[3] = system: human DU145 prostate tumor cells; experiment: Human DU145 prostate tumor xenograft in nude mice; type: in vivo; details: xenograft study, FIG. 6E
[4] = system: B16 melanoma cells; experiment: Growth of B16 melanoma cells in syngeneic mice; type: in vivo; details: FIG. 6C
[5] = system: human breast tumor MCF-7 cells; experiment: Proliferation of MCF-7 cells by CyQUANT analysis; type: cell-based; details: FIG. 5E
Procedure: To determine whether administration of LPAAT-β inhibitor would have any effect on cell proliferation in tissue culture, proliferation of human breast tumor MCF-7 cells in microplates were measured by CyQUANT analysis using a green-fluorescent nucleic acid stain optimized to produce a linear detection range from 50 to 50,000 cells in 200 μl volume (Molecular Probes, Eugene, Oreg.) in the presence of various concentrations of a LPAAT-β inhibitor.

[6] = molecular target: T2, LPAAT-β (Homo sapiens, UniProt O15120); experiment: Secondary assay of LPAAT-β activity (radiometric/TLC); type: biochemical; details: FIG. 9
T2 construct: the full-length human LPAAT-β cDNA was amplified by PCR; made in house; host or cells: Sf9 insect cells (baculovirus, pFastBac HTc); membrane fraction
T2 sequence (O15120 24-278): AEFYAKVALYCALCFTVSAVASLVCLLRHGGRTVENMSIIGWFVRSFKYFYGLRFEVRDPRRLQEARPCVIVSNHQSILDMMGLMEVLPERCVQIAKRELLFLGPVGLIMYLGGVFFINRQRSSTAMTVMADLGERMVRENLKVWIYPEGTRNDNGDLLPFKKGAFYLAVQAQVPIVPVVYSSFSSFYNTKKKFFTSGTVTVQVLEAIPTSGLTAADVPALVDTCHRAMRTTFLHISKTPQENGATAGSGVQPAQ
Procedure: The radiometric assay was carried out in Sf9 cell membrane overexpressing LPAAT-β resuspended in HEPES-saline buffer, pH 7.5, 1 mg/ml BSA, 1 mM EDTA and 200 μM [^14C]18:1-CoA and 200 μM sn-1-18:1 lysoPA. The samples were incubated 7 min at 37° C. extracted into organic solvent (CHCl3/CH3OH/HCl at 33/66/1), before loading onto TLC plates. A more detailed protocol for the radiometric assay is described below:
Specifically, this LPAAT assay is a modification of the acyltransferase assay published previously (Hollenback and Glomset, Biochemistry 37: 363-376 (1999)).
1. The basic assay, in a total vol of 50 μl, employs a solution of substrates and the protein sample. Total assay volume, as well as the volume of each solution, can be changed to fit an experiment. In addition, other compounds, ex inhibitors and activators, can be included in the assay as well.
2. […]
7. […] To be able to convert pixel volume (determined by the Storm phosphor imager, see step 8b) into cpm, cpm standard curve must be generated on the plate. ^14C-labeled oleate dilutions in chloroform are made for this purpose. Four stocks (50 cpm/μl to 800 cpm/μl) are made and 2 μl of a different concentration are spotted in each corner of the plate (where previously there was no radioactivity). • d. […]
The PA and lysoPA bands are easily detected in this system because of the carrier added in step 5. […]
8. Quantitating activity: • a. […]

[7] = system: Lewis Lung tumor cells; experiment: Growth of Lewis Lung tumor cells in syngeneic mice; type: in vivo; details: FIG. 6D
[8] = Tolerability in nude and immunocompetent mice; type: in vivo
From the text: In summary, endogenous LPAAT-β expression is detected at high levels by both in situ hybridization and immunohistochemistry in particular tumor tissues and often in surrounding stroma and is associated with tumor progression. LPAAT-β overexpression appears to contribute reversibly to transformation and tumorigenesis of immortalized rodent cells and may also contribute to increased transformation of weakly tumorigenic human cell lines. Compounds selected from screening of LPAAT-β inhibitors from different structural families can inhibit proliferation of numerous tumor cell lines in vitro. […] This compound can inhibit the growth of numerous tumor models in mice and may be a tumor-static compound.

Clc1nc(Nc2ccccc2)nc(Nc2ccccc2)n1 [6-chloro-N,N′-diphenyl-[1,3,5]triazine-2,4-diamine]
volume of the tumors in mice [1]: decreased as the concentration of the LPAAT-β inhibitor increases | effect on LPAAT-α activity [2]: minimal effect | growth of human DU145 prostate tumor cells [3]: decrease the growth | growth of B16 melanoma cells [4]: decrease the growth | concentration effective in blocking the proliferation of MCF-7 cells [5]: > 20 µM | inhibition of LPAAT-β activity [6]: concentration-dependent inhibition | growth of Lewis Lung tumor cells [7]: decrease the growth | gross pathology ([8]; at least 100 mg/kg/day for 4-5 days): no discernable gross pathology | tolerated dose ([8]; nude and immunocompetent mice, mouse, in vivo): at least 100 mg/kg/day
